Active and inactive are the calls of the source. The rule behind the calls is not given here.

Experimental findings from ChEMBL document CHEMBL1155017, “The use of natural product scaffolds as leads in the search for trypanothione reductase inhibitors” (Bioorg Med Chem, 2008) are described below.

Assay [1] has as its target Trypanothione reductase (Trypanosoma cruzi) (UniProt P28593). Put plainly: Inhibition of Trypanosoma cruzi recombinant trypanothione reductase at 85 uM.
Assay [2] has as its system Leishmania amazonensis. Put plainly: Antileishmanial activity against Leishmania amazonensis MHOM/BR/76/LTB-012 promastigotes at 100 uM after 72 hrs by alamar blue assay. It counts as functional. The note with it: MHOM/BR/76/LTB-012, 72 h, read-out: GI. (In general: Resazurin is reduced to fluorescent resorufin, in cell work by metabolically active cells.)
In assay [3] the target is T1, Trypanothione reductase (Trypanosoma cruzi, UniProt P28593). Put plainly: (§1) Inhibition of Trypanosoma cruzi recombinant trypanothione reductase.
T1 sequence (P28593 whole entry): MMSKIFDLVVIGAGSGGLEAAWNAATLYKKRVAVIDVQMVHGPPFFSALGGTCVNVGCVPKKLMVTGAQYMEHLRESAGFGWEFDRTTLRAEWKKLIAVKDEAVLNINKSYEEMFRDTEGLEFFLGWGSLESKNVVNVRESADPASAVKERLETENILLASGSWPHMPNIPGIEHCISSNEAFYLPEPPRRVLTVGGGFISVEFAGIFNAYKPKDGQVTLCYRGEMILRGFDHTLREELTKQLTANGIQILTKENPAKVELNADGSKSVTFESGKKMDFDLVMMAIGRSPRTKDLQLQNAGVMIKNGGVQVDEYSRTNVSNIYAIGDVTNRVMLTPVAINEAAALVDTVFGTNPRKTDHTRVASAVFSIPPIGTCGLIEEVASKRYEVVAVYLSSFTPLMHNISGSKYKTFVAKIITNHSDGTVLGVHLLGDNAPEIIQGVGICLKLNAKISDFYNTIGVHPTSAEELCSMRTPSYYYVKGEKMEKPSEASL
For assay [4], the target named is Trypanothione reductase (Trypanosoma cruzi) (UniProt P28593). Described as §1.
Trypanothione reductase (Trypanosoma cruzi), sequence (P28593 whole entry, looked up): as the sequence (P28593 whole entry) above
Assay [5] has as its target T2, Glutathione reductase (Saccharomyces cerevisiae S288c) (UniProt P41921).
T2 sequence (whole entry): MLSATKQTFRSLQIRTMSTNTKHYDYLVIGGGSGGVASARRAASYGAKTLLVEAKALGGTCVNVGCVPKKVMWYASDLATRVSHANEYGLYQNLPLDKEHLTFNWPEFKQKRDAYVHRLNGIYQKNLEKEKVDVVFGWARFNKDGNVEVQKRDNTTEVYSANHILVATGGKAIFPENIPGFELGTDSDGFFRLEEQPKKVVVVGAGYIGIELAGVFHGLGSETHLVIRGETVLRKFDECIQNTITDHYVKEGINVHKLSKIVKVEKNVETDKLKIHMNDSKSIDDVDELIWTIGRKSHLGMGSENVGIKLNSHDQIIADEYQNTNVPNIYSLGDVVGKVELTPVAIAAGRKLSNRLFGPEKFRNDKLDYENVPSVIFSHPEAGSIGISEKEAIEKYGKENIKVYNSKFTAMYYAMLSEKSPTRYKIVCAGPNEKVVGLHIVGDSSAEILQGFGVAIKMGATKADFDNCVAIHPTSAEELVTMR
In words: Inhibition of yeast glutathione reductase at 100 uM.

Assay [6] addresses T2, Glutathione reductase (Saccharomyces cerevisiae S288c). In words: Inhibition of yeast glutathione reductase at 10 uM.
Another assay relates to NIH3T3. Put plainly: Cytotoxicity against mouse NIH3T3 cells. It counts as cell-based.
The target of assay [7] is T1, Trypanothione reductase. In words: Inhibition of Trypanosoma cruzi recombinant trypanothione reductase-substrate complex.
The target in assay [8] is Trypanothione reductase (Trypanosoma cruzi) (UniProt P28593). In words: Inhibition of Trypanosoma cruzi recombinant trypanothione reductase at 12.2 uM.
Assay [9] has the same target. Put plainly: Inhibition of Trypanosoma cruzi recombinant trypanothione reductase at 200 uM.
The target is the same in assay [10]. In words: Inhibition of Trypanosoma cruzi recombinant trypanothione reductase at 400 uM.
Assay [11] has the same target. Put plainly: Inhibition of Trypanosoma cruzi recombinant trypanothione reductase at 800 uM.
The test system of a further assay is Leishmania infantum. Put plainly: Antileishmanial activity against Leishmania infantum promastigotes. It counts as functional, organism-based.
Assay [12] has as its target T3, Trypanothione reductase (Crithidia fasciculata, UniProt P39040). Put plainly: Inhibition of Crithidia fasciculata free trypanothione reductase.
In assay [13] the target is T3, Trypanothione reductase. Put plainly: Inhibition of Crithidia fasciculata trypanothione reductase-substrate complex.
Assay [14] concerns Leishmania amazonensis. Put plainly: Antileishmanial activity against Leishmania amazonensis MHOM/BR/76/LTB-012 promastigotes after 72 hrs by alamar blue assay. It counts as functional, organism-based. The note with it: MHOM/BR/76/LTB-012, 72 h.

T3 sequence (P39040 whole entry): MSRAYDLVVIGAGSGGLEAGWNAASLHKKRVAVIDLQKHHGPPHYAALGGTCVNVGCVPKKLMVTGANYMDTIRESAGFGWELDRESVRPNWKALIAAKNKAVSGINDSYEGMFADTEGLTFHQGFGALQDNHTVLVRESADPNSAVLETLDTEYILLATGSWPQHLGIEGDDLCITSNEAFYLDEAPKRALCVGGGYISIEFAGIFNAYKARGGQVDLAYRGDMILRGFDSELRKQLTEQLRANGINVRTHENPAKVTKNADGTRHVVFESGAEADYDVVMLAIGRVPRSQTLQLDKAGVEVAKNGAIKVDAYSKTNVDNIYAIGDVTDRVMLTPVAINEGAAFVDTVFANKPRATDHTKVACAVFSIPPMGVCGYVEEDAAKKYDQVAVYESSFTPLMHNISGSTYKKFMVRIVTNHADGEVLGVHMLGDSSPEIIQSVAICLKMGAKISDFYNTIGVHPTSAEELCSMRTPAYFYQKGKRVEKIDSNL

A word on the inhibition: it is the change of the read-out against control, counted positive when it falls. For `C=CC1CN2CCC1CC2C(O)c1ccnc2ccccc12` (centres undefined), the inhibition in assay [1] came out at 18%. The inhibition of growth at 100 µM in the assay with Leishmania amazonensis [2] is 51%.
Broadly, the Ki is the dissociation constant of the complex between target and ligand, obtained from inhibition or displacement. For the molecule `COc1cc(CC2NCCc3c2[nH]c2ccccc32)ccc1O` (centres undefined), the Ki at Trypanothione reductase [3] amounted to 7 µM.
For `O=C1CC[C@]23/C=C/C(=O)NCCCCNCCCNC(=O)/C=C\c4ccc(c2c4)O[C@@H]3C1`, the Kinact in assay [4] turned out to be 0.116 min⁻¹. The Ki at Trypanothione reductase [3] worked out at 144 µM.
Take `CN(C)CCCn1c2c(c(=O)n(CCCN(C)C)c1=O)Nc1ccccc1S2`: on Trypanothione reductase [3], the Ki came out at 26.9 µM. Besides, the inhibition in assay [1] was 62%. The outcome in [5] was inactive. In addition, in the assay on Leishmania amazonensis [2], the inhibition of growth at 100 µM turned out to be 11%.
As for `CC1=CC2c3cccc4[nH]cc(c34)C[C@H]2N(C)C1` (some centres undefined), the inhibition in assay [1] came to 28%. The inhibition of growth at 100 µM with Leishmania amazonensis [2] was found to be 70%.
Take `COc1ccc2c3c(n(CCCN(C)C)c2c1)C(C)=NCC3`: the Ki at Trypanothione reductase [3] was 35.1 µM. Also, the inhibition is 50% in assay [1] and 6% in assay [5]. In addition, in the assay on Leishmania amazonensis [2], the inhibition of growth at 100 µM was determined as 57%.
Take `N#Cc1ccc(C2NCCc3c2[nH]c2ccccc32)cc1` (centres undefined): the Ki at Trypanothione reductase [3] amounted to 2 µM.
Take `CN(C)CCCn1c2ccccc2c2ccncc21`: in assay [1], the inhibition stood at 20%.
Take `CN(C)CCc1cn(C)c2ccc(O)cc12`: in [1], the inhibition stood at 9%.
Turning to `CN(C)Cc1cn(C)c2ccccc12`, the inhibition in assay [1] is 8%.
As to `CN(C)c1ccc2nc3ccc(=[N+](C)C)cc-3sc2c1`, the inhibition in assay [6] stood at 30%.
On to `COc1ccc(-c2cc(=O)c3c(O)cc(OC)cc3o2)cc1`, for which, in assay [1], the inhibition is 12%.
Take `COc1ccc2c(c1)[nH]c1c(C)nccc12`: the inhibition in assay [1] stood at 11%.
Regarding `COc1ccc2c3ccnc(C)c3n(CCCN(C)C)c2c1`, in assay [1], the inhibition came to 13%.
Turning to `C[C@@H]1CN(CCCn2c3ccccc3c3ccccc32)C[C@H](C)N1`, the inhibition in assay [1] came to 4%.
In the case of `Cc1nccc2c1[nH]c1ccccc12`, the inhibition in assay [1] is 10%.
Consider `Cc1nccc2c3ccccc3n(CCCN(C)C)c12`, for which the inhibition in assay [1] worked out at 22%.
`O=C(/C=C/C=C/c1ccc2c(c1)OCO2)N1CCCCC1`: in assay [1], the inhibition came out at 11%.
In the case of `O=c1cc(-c2ccc(O)cc2)oc2cc(O)cc(O)c12`, in assay [1], the inhibition is 13%.
The same measure, in the same setting: in the case of `c1ccc2c(c1)[nH]c1cnccc12` it was 10%.
Consider `CC[C@H]1[C@@H]2C[C@H]3[C@@H]4N(C)c5ccccc5[C@]45C[C@@H]([C@@H]2[C@H]5O)N3[C@@H]1O` [AJMALINE], for which the inhibition in assay [1] amounted to 12%. Besides, the inhibition of growth at 100 µM in the assay with Leishmania amazonensis [2] is 5%.
What is called IC50 is the midpoint of a concentration-inhibition curve. Take `CC[C@@]12CCCN3CC[C@]4(c5cccc(OC)c5N(C(C)=O)[C@@H]4CC1)[C@H]32` [ASPIDOSPERMINE]: on Trypanothione reductase [3], the IC50 amounted to 90.4 µM and the Ki came to 64.6 µM. Further, the inhibition in [1] was found to be 43%. The result in [5] was inactive. The inhibition of growth at 100 µM in the assay with Leishmania amazonensis [2] worked out at 89%. Besides, in the assay with NIH3T3, the IC50 is 46.2 µM.
With `COc1ccc2cc1Oc1ccc(cc1)C[C@H]1c3c(cc4c(c3Oc3cc5c(cc3OC)CCN(C)[C@@H]5C2)OCO4)CCN1C` [CEPHARANTHINE], the Ki was determined as 7.6 µM on Trypanothione reductase [3] and 51.6 µM at Trypanothione reductase [7].
Regarding `CN(C)CCCN1c2ccccc2Sc2ccc(Cl)cc21` [CHLORPROMAZINE], at Trypanothione reductase [3], the IC50 turned out to be 5.8 µM and the inhibitory constant (Ki) worked out at 3.2 µM. Further, the inhibition in assay [8] was 70%.
With `COC(=O)NC1CCc2cc(OC)c(OC)c(OC)c2-c2ccc(OC)c(=O)cc21` (centres undefined) [COLCHININE], the inhibition in assay [1] amounted to 8%. In the assay on Leishmania amazonensis [2], the inhibition of growth at 100 µM was determined as 6%.
Turning to `C[C@H]1[C@H]2CC[C@H]3[C@@H]4CC=C5C[C@@H](N(C)C)CC[C@]5(C)[C@H]4CC[C@]23CN1C` [CONESSINE], the inhibition in [1] was 25%; in assay [9] it was 45%; in [10] it was 73%; in [11], 91%. The inhibition of growth at 100 µM in the assay with Leishmania amazonensis [2] is 97%.
With `COc1ccc2c3c([nH]c2c1)C(C)=NCC3` [HARMALINE], the inhibition in assay [1] stood at 19%. In addition, the IC50 with Leishmania infantum was determined as 119 µM.
For the molecule `O=C(CCc1ccc(O)c(O)c1)NCCCNCCCCNCCCNC(=O)CCc1ccc(O)c(O)c1` [KUKOAMINE A], the Ki stood at 1800 nM on Trypanothione reductase [12] and 13 µM on Trypanothione reductase [13].
In the case of `N=C(N)c1ccc(OCCCCCOc2ccc(C(=N)N)cc2)cc1` [PENTAMIDINE], the inhibition of growth at 100 µM with Leishmania amazonensis [2] was determined as 86%. This molecule also returned an IC50 in the assay with Leishmania amazonensis [14] of 290 nM.
On to `O=c1[nH]c2c(c(=O)[nH]1)CNc1ccccc1S2` [PYRIMIDOBENZOTHIAZEPINE], for which the inhibition in assay [1] stood at 10%. Also, in the assay on Leishmania amazonensis [2], the inhibition of growth at 100 µM was 14%.
In the case of `O=c1[nH]c2c(c(=O)[nH]1)Nc1ccccc1S2` [PYRIMIDOBENZOTHIAZINE], in assay [1], the inhibition worked out at 36%. Further, the inhibition of growth at 100 µM in the assay on Leishmania amazonensis [2] turned out to be 15%.
